This assay has as its target T1, human mGlu5a receptor (Homo sapiens, UniProt P41594).
T1 construct: expressed in transfected cells
Description: Intracellular Ca2+ mobilization assay (mGlu5 PAM). Format: cell-based. The note with it: for EC50: HEK-293 cells stably transfected with human mGlu5a, L-glutamate added at EC20 after 10-30 min pre-incubation with test compound, read-out: EC50 (nM) mGlu5PAM; for Emax: maximal response in % of the maximal stimulatory effect obtained with saturating concentrations of L-glutamate, read-out: Eff. (%). The protocol:
A monoclonal HEK-293 cell line stably transfected with a cDNA encoding for the human mGlu5a receptor was generated; for the work with mGlu5 Positive Allosteric Modulators (PAMs), a cell line with low receptor expression levels and low constitutive receptor activity was selected to allow the differentiation of agonistic versus PAM activity. Cells were cultured according to standard protocols (Freshney, 2000) in Dulbecco's Modified Eagle Medium with high glucose supplemented with 1 mM glutamine, 10% (vol/vol) heat-inactivated bovine calf serum, Penicillin/Streptomycin, 50 μg/ml hygromycin and 15 μg/ml blasticidin (all cell culture reagents and antibiotics from Invitrogen, Basel, Switzerland).
About 24 hrs before an experiment, 5×10^4 cells/well were seeded in poly-D-lysine coated, black/clear-bottomed 96-well plates. The cells were loaded with 2.5 μM Fluo-4AM in loading buffer (1×HBSS, 20 mM HEPES) for 1 hr at 37° C. and washed five times with loading buffer. The cells were transferred into a Functional Drug Screening System 7000 (Hamamatsu, Paris, France), and 11 half logarithmic serial dilutions of test compound at 37° C. were added and the cells were incubated for 10-30 min. with on-line recording of fluorescence. Following this pre-incubation step, the agonist L-glutamate was added to the cells at a concentration corresponding to EC20 (typically around 80 μM) with on-line recording of fluorescence; in order to account for day-to-day variations in the responsiveness of cells, the EC20 of glutamate was determined immediately ahead of each experiment by recording of a full dose-response curve of glutamate.
Responses were measured as peak increase in fluorescence minus basal (i.e. fluorescence without addition of L-glutamate), normalized to the maximal stimulatory effect obtained with saturating concentrations of L-glutamate. Graphs were plotted with the % maximal stimulatory using XLfit, a curve fitting program that iteratively plots the data using Levenburg Marquardt algorithm. The single site competition analysis equation used was y=A+((B−A)/(1+((x/C)D))), where y is the % maximal stimulatory effect, A is the minimum y, B is the maximum y, C is the EC50, x is the log 10 of the concentration of the competing compound and D is the slope of the curve (the Hill Coefficient). From these curves the EC50 (concentration at which half maximal stimulation was achieved), the Hill coefficient as well as the maximal response in % of the maximal stimulatory effect obtained with saturating concentrations of L-glutamate were calculated.
A depression of the signal observed after addition of the EC20 concentration of L-glutamate was indicative of an inhibitory activity of the test compound.

T1 sequence (P41594 21-1180 isoform P41594-2 limits assumed): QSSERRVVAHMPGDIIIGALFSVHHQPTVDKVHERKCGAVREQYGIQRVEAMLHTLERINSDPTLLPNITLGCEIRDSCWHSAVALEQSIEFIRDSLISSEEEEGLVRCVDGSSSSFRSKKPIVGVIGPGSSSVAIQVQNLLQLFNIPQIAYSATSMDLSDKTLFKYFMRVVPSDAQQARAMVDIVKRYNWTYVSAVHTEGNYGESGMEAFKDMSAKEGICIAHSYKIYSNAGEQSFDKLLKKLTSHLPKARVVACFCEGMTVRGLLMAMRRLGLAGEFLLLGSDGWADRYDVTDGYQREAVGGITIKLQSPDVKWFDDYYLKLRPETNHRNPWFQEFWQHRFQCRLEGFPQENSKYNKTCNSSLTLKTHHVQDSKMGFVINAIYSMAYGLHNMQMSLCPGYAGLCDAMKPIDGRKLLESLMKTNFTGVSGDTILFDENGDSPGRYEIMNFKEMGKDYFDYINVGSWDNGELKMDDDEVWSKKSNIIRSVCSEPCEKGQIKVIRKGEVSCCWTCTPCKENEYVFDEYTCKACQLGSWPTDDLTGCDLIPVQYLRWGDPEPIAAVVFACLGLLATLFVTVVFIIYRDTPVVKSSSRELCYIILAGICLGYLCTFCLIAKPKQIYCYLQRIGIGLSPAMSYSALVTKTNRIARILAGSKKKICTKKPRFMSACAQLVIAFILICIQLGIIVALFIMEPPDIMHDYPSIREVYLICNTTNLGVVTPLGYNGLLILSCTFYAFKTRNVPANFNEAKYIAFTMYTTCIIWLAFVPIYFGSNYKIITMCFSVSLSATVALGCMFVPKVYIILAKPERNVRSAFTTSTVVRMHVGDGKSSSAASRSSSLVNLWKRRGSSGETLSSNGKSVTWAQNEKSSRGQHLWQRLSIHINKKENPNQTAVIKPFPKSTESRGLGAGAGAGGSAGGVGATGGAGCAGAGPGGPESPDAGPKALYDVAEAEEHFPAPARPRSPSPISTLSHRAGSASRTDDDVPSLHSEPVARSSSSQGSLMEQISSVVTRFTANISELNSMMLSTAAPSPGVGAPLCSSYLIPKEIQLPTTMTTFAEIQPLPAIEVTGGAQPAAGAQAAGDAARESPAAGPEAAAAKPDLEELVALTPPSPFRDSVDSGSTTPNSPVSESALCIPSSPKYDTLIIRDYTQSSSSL

Consider `CC(C)(C)c1cc2ncc(C#Cc3ccccc3N)cn2n1` [Example 36, 2-(2-tert-Butyl-pyrazolo[1,5-a]pyrimidin-6-ylethynyl)-phenylamine], for which the concentration giving a half-maximal response (EC50) was 155 nM and the Emax turned out to be 88%.
Consider `CC(C)(C)c1cc2ncc(C#Cc3cc(F)ccc3F)cn2n1` [Example 37, 2-tert-Butyl-6-(2,5-difluoro-phenylethynyl)-pyrazolo[1,5-a]pyrimidine], for which the EC50 is 39 nM and the Emax was found to be 65%.
On the same counts, the results for `CC(C)c1cc2ncc(C#Cc3ccccc3)cn2n1` [Example 38, 2-Isopropyl-6-phenylethynyl-pyrazolo[1,5-a]pyrimidine] are 18 nM and 53%.
With `CC(C)(C)c1nc2ccc(C#Cc3ccccc3)cn2n1` [Example 39, 2-tert-Butyl-6-phenylethynyl-[1,2,4]triazolo[1,5-a]pyridine], the EC50 amounted to 30 nM and the Emax came out at 54%.
Consider `CC(C)(CO)c1nc2ccc(C#Cc3ccccc3)cn2n1` [Example 40, 2-Methyl-2-(6-phenylethynyl-[1,2,4]triazolo[1,5-a]pyridin-2-yl)-propan-1-ol], for which the EC50 was found to be 66 nM and the Emax is 88%.
On the same counts, the results for `CC(C)(C)c1cc2ccc(C#Cc3ccccc3)cn2n1` [Example 41, 2-tert-Butyl-6-phenylethynyl-pyrazolo[1,5-a]pyridine] are 32 nM and 122%.
The matching figures for `CC(C)(C)c1nc2ncc(C#Cc3ccccc3)cn2n1` [Example 42, 2-tert-Butyl-6-phenylethynyl-[1,2,4]triazolo[1,5-a]pyrimidine]: 9 nM and 73%.
On the same counts, the results for `CC(C)(C)c1nc2ncc(C#Cc3cc(F)ccc3F)cn2n1` [Example 43, 2-tert-Butyl-6-(2,5-difluoro-phenylethynyl)-[1,2,4]triazolo[1,5-a]pyrimidine] are 14 nM and 37%.
Take `CC(C)(C)c1nc2ncc(C#Cc3cccc(F)c3)cn2n1` [Example 44, 2-tert-Butyl-6-(3-fluoro-phenylethynyl)-[1,2,4]triazolo[1,5-a]pyrimidine]: the EC50 was determined as 9 nM and the Emax stood at 85%.
The matching figures for `CC(C)(C)c1nc2ncc(C#Cc3ccc(F)c(F)c3)cn2n1` [Example 45, 2-tert-Butyl-6-(3,4-difluoro-phenylethynyl)-[1,2,4]triazolo[1,5-a]pyrimidine]: 28 nM and 54%.
`CC(C)(C)c1nc2ncc(C#Cc3cncc(Cl)c3)cn2n1` [Example 46, 2-tert-Butyl-6-(5-chloro-pyridin-3-ylethynyl)-[1,2,4]triazolo[1,5-a]pyrimidine]: the EC50 stood at 47 nM and the Emax was 49%.
The matching figures for `C(#Cc1cnc2nc(N3CCOCC3)nn2c1)c1ccccc1` [Example 47, 2-Morpholin-4-yl-6-phenylethynyl-[1,2,4]triazolo[1,5-a]pyrimidine]: 69 nM and 119%.
The matching figures for `Cc1cccc(C#Cc2cnc3nc(N4CCOCC4)nn3c2)c1` [Example 48, 2-Morpholin-4-yl-6-m-tolylethynyl-[1,2,4]triazolo[1,5-a]pyrimidine]: 58 nM and 84%.
Regarding `Fc1cccc(C#Cc2cnc3nc(N4CCOCC4)nn3c2)c1` [Example 49, 6-(3-Fluoro-phenylethynyl)-2-morpholin-4-yl-[1,2,4]triazolo[1,5-a]pyrimidine], the EC50 is 50 nM and the Emax is 101%.
As for `Clc1cccc(C#Cc2cnc3nc(N4CCOCC4)nn3c2)c1` [Example 50, 6-(3-Chloro-phenylethynyl)-2-morpholin-4-yl-[1,2,4]triazolo[1,5-a]pyrimidine], the EC50 is 39 nM and the Emax worked out at 88%.
As to `C(#Cc1cnc2nc(N3CCCC3)nn2c1)c1ccccc1` [Example 51, 6-Phenylethynyl-2-pyrrolidin-1-yl-[1,2,4]triazolo[1,5-a]pyrimidine], the EC50 was 56 nM and the Emax came out at 141%.
